The assay concerns N. benthamiana leaves. Briefly: Leaf protein profile, Coomassie blue-stained SDS-PAGE and MS/MS identification. The settings on record: uninfiltrated leaves; ~30-kDa, ~25-kDa and ~6-kDa mass ranges; seven days post-treatment. The format is in vivo, Nicotiana benthamiana. The method, then: Forty-two day-old N. benthamiana plants grown in greenhouse were used for the experiments. Each plant was sprayed evenly with 50 ml of 0.5 mM, 1 mM or 2 mM MeJA in water containing 0.1% (v/v) Triton X-100 (Sigma-Aldrich, Mississauga ON, Canada), or with 50 ml of 1 mM arachidonic acid (Girard et al., 2007) in the same solvent, and transferred for seven days in a Conviron growth chamber (Conviron, Winnipeg MB, Canada). Plants sprayed with 50 ml of 0.1% (v/v) Triton X-100 in water were used in parallel as negative controls to avoid confounding effects due to experimental conditions. […]
Whole leaf proteins were extracted from three 1-cm^2 leaf discs in 400 μl of ice-cold 50 mM Tris-HCl, pH 7.5, containing 150 mM NaCl, by disrupting the leaf samples with tungsten carbide beads (Qiagen, Mississauga ON, Canada) in a Mini-Beadbeater apparatus (BioSpec, Bartlesville Okla., USA). […] RuBisCO small subunit was detected using polyclonal IgG raised in rabbit against a synthetic small subunit peptide (Agrisera, Vännäs, Sweden) and alkaline phosphatase-conjugated goat anti-rabbit IgG as secondary antibodies (Sigma-Aldrich). RuBisCO large subunit was detected using polyclonal IgG raised in hen against a synthetic large subunit peptide (Agrisera) and alkaline phosphatase-conjugated goat anti-chicken IgG as secondary antibodies (Sigma-Aldrich). […]

For `CC/C=C\C[C@H]1C(=O)CC[C@@H]1CC(=O)OC` [MeJA, methyl jasmonate], the “up-regulation of proteins on Coomassie blue-stained gels” value is “up-regulation of several proteins”.

The values are drawn from patent US10907168B2, “Jasmonic acid pathway activator” (MEDICAGO INC., priority 2015, dated 2021).
